According to US20240101584A1, “TARGETED DELIVERY OF 1,2,4,5 TETRAOXANE COMPOUNDS AND THEIR USES” (Westlake University, priority 2021, published 2024):
Entries after “also recorded” stand apart in the source; their conditions may differ. Where two headings read alike, the source gives them in different places.

Experiments:
Hela cells = test: MTT viability assay, Hela cells; assay type: cell-based, human; conditions: 48 h incubation, mean, n = 3, read-out: IC50 against Hela cells
Protocol: (§1) The anticancer activities of the exemplary compounds listed in Example 1 were tested against human cervix Hela cells, mammary breast cancer MDA-MB-231 cells, human hepatocellular HepG2 cells, human colorectal HCT116 cells, mammary ductal T47D cells, non-cancerous NIH3T3 cells, dog's kidney MDCK cells, and mouse brain bEnd.3 cells, respectively.

MDCK cells = test: MTT viability assay, MDCK cells; assay type: cell-based, dog; conditions: 48 h incubation, mean, n = 3, read-out: IC50 against MDCK cells
Protocol: as §1

NIH3T3 cells = test: MTT viability assay, non-cancerous NIH3T3 cells; assay type: cell-based
Protocol: as §1

MDA-MB-231 cells = test: MTT viability assay, MDA-MB-231 cells; assay type: cell-based
Protocol: as §1

T47D cells = test: MTT viability assay, T47D cells; assay type: cell-based
Protocol: as §1

HCT116 cells = test: MTT viability assay, HCT116 cells; assay type: cell-based, human; conditions: for IC50: Homo sapiens, HCT-116
Protocol: as §1

HEK293 cells = test: MTT viability assay, HEK293 cells; assay type: cell-based; conditions: Homo sapiens, HEK293, 48 h incubation, mean, n = 3, read-out: IC50 against HEK293 cells
HEYA8 CSCs = test: CellTiter-Glo viability, HeyA8 cancer stem cells (spheres); assay type: cell-based; conditions: 5 μM of erastin, 50 μM of artesunate; RSL3 single dose
[1] = system: MDA-MB-231 xenograft tumors; test: Mouse xenograft breast tumors (MDA-MB-231); assay type: in vivo, Nude mice; conditions: mouse, in vivo
Protocol: FIG. 12A is a graph showing the tumor volume of xenograft tumors versus time after s.c. injection of DMSO, PTX, compound 37b, or compound 48. Nude mice were injected s.c. with MDA-MB-231 cells (10^6) and randomly allocated to one of the six treatment groups (n=5): (i) DMSO, (ii) Paclitaxel (PTX), 5 mg/kg, (iii) compound 37b, 5 mg/kg, (iv) compound 37b, 10 mg/kg, (v) compound 48, 5 mg/kg, or (vi) compound 48, 10 mg/kg. When control animals (DMSO) began to appear tumor ulceration (25 days), all animals in the experiment were sacrificed and photographed.
FIG. 12B are photographs of the tumor from sacrificed animals of different treatment groups after 25 days. FIG. 12C is a graph showing the tumor weight of xenograft tumors versus time after s.c. injection of DMSO, PTX, compound 37b, or compound 48. Data are shown as mean±SEM. * P≤0.05 versus DMSO group. FIG. 12D are photographs showing the morphological observation of mice tissue treated with DMSO, paclitaxel, compound 37b, or compound 48 with H&E staining on heart, liver, kidney, lungs, and spleen tissues (200×).

[2] = Mus musculus, NIH3T3, MTT, 48 h incubation, mean, n = 3, read-out: IC50 against NIH3T3 cells
[3] = MTT, 48 h incubation, mean, n = 3, read-out: IC50 against HCT116 cells
[4] = Homo sapiens, MDA-MB-231, 48 h, MTT, 48 h incubation, mean, n = 3, read-out: IC50 against MDA-MB-231 cells
[5] = Homo sapiens, T47D, MTT, 48 h incubation, mean, n = 3, read-out: IC50 against T47D cells
[6] = Mus musculus, NIH3T3, Table 12b, read-out: IC50 NIH3T3
[7] = Table 12b, read-out: IC50 HCT116
[8] = Homo sapiens, MDA-MB-231, Table 12b, read-out: IC50 MDA-MB-231
[9] = Homo sapiens, T47D, Table 12b, read-out: IC50 T47D

SMILES | IC50 (HCT116 cells; [3]) [µM] | IC50 (MDA-MB-231 cells; [4]) [µM] | IC50 (Hela cells; Homo sapiens, HeLa) [µM] | IC50 (T47D cells; [5]) [µM] | IC50 (NIH3T3 cells; [2]) [µM] | IC50 (MDCK cells; Canis lupus familiaris, MDCK) [µM] | also measured
CC(C)(C)C1CCC2(CC1)OOC1(CCC(OC(=O)NCCCCO[C@@H]3O[C@H](CO)[C@@H](O)[C@H](O)[C@H]3O)CC1)OO2 (stereo partly drawn) [Compound 37i, 12-(tert-butyl)-7,8,15,16-tetraoxadispiro[5.2.59.26]hexadecan-3-yl(4-(((2R,3R,4S,5S,6R)-3,4,5-trihydroxy-6-(hydroxymethyl)tetrahydro-2H-pyran-2-yl)oxy)butyl)carbamate] |  |  |  |  |  |  | IC50 (Hela cells): 28.5 µM; IC50 (MDCK cells): > 50 µM; IC50 (NIH3T3 cells; MTT, 48 h incubation, mean, n = 3, read-out: IC50 against NIH3T3 cells): > 100 µM; IC50 (MDA-MB-231 cells; MTT, 48 h incubation, mean, n = 3, read-out: IC50 against MDA-MB-231 cells): 24.3 µM; IC50 (T47D cells; MTT, 48 h incubation, mean, n = 3, read-out: IC50 against T47D cells): 13.2 µM
CC(C)(C)C1CCC2(CC1)OOC1(CCC(OC(=O)NCCC[N+](C)(C)C)CC1)OO2 (stereo not drawn) [Compound 49, 3-((((12-(tert-butyl)-7,8,15,16-tetraoxadispiro[5.2.59.26]hexadecan-3-yl)oxy)carbonyl)amino)-N,N,N-trimethylpropan-1-aminium iodide] | > 50 | 31.5 |  |  | > 50 |  | 
CN(C)CCCNC(=O)OC1CCC2(CC1)OOC1(OO2)C2CC3CC(C2)CC1C3 (stereo not drawn) [Compound 30a, (1r,3r,5r,7r)-dispiro[adamantane-2,3′-[1,2,4,5]tetraoxane-6′,1″-cyclohexan]-4″-yl(3-(dimethylamino)propyl)carbamate] |  | 14.4 |  |  |  | 42.8 | IC50 (HEK293 cells): 2500 nM
CC(C)(C)C1CCC2(CC1)OOC1(CCC(OC(=O)N3CC[N+](C)(C)CC3)CC1)OO2 (stereo not drawn) [Compound 51, 4-(((12-(tert-butyl)-7,8,15,16-tetraoxadispiro[5.2.59.26]hexadecan-3-yl)oxy)carbonyl)-1,1-dimethylpiperazin-1-ium iodide] | > 50 | 26.1 |  |  | > 25 |  | 
CCCC[N+](C)(CCCC)CCCNC(=O)OC1CCC2(CC1)OOC1(CCC(C(C)(C)C)CC1)OO2.[I-] (stereo not drawn) [Compound 53, N-butyl-N-(3-((((12-(tert-butyl)-7,8,15,16-tetraoxadispiro[5.2.59.26]hexadecan-3-yl)oxy)carbonyl)amino)propyl)-N-methylbutan-1-aminium iodide] | 6.7 | < 4 |  |  | 33.7 |  | IC50 (NIH3T3 cells; [6]): 33.7 ± 3.4 µM; IC50 (HCT116 cells; [7]): 6.7 ± 1.4 µM; selectivity index (IC50 of NIH3T3 divided by IC50 on HCT116) (HCT116 cells; Table 12b, value in bracket): (>5); IC50 (MDA-MB-231 cells; [8]): 3.7 ± 0.4 µM; selectivity index (IC50 of NIH3T3 divided by IC50 on MDA-MB-231) (MDA-MB-231 cells; Table 12b, value in bracket): (>9.1)
CC(=O)OC[C@H]1O[C@@H](OCCCCNC(=O)OC2CCC3(CC2)OOC2(CCC(C(C)(C)C)CC2)OO3)[C@H](OC(C)=O)[C@@H](OC(C)=O)[C@@H]1OC(C)=O (stereo partly drawn) [Compound 37h, (2R,3R,4S,5R,6R)-2-(acetoxymethyl)-6-(4-((((12-(tert-butyl)-7,8,15,16-tetraoxadispiro[5.2.59.26]hexadecan-3-yl)oxy)carbonyl)amino)butoxy)tetrahydro-2H-pyran-3,4,5-triyl triacetate] |  |  |  |  |  |  | IC50 (NIH3T3 cells; Mus musculus, NIH3T3, Table 13, experimental data, MTT, 48 hrs, n = 3, read-out: IC50 NIH3T3): 4.6 ± 1.9 µM; IC50 (HCT116 cells; Table 13, experimental data, MTT, 48 hrs, n = 3, read-out: IC50 HCT116): 0.6 ± 0.3 µM; selectivity index (IC50 of NIH3T3 divided by IC50 on HCT116) (HCT116 cells; Table 13, value in bracket): (>7); IC50 (MDA-MB-231 cells; Homo sapiens, MDA-MB-231, 48 h, Table 13, experimental data, MTT, 48 hrs, n = 3, read-out: IC50 MDA-MB-231): 0.4 ± 0.05 µM; selectivity index (IC50 of NIH3T3 divided by IC50 on MDA-MB-231) (MDA-MB-231 cells; Table 13, value in bracket): (>11); IC50 (T47D cells; Homo sapiens, T47D, Table 13, experimental data, MTT, 48 hrs, n = 3, read-out: IC50 T47D): 0.6 ± 0.1 µM; selectivity index (IC50 of NIH3T3 divided by IC50 on T47D) (T47D cells; Table 13, value in bracket): (>7)
CCOc1ccccc1-n1c(C(C)N2CCN(C(=O)COc3ccc(Cl)cc3)CC2)nc2ccccc2c1=O (stereo not drawn) [Erastin, reference compound] |  | 1.3 |  |  | 0.29 |  | cytotoxic effect on HEYA8 CSCs at single dose (HEYA8 CSCs): did not show any cytotoxic effect; also recorded: almost insensitive
CC(C)(C)C1CCC2(CC1)OOC1(CCC(OC(=O)NCCC[N+](C)(C)Cc3ccccc3)CC1)OO2 (stereo not drawn) [Compound 54, N-benzyl-3-((((12-(tert-butyl)-7,8,15,16-tetraoxadispiro[5.2.59.26]hexadecan-3-yl)oxy)carbonyl)amino)-N,N-dimethylpropan-1-aminium iodide] | 26.2 | 14.7 |  |  | > 50 |  | 
CC(C)(C)C1CCC2(CC1)OOC1(CCC(OC(=O)Oc3ccc([N+](=O)[O-])cc3)CC1)OO2 (stereo not drawn) [Compound 37c, 12-(tert-butyl)-7,8,15,16-tetraoxadispiro[5.2.59.26]hexadecan-3-yl(4-nitrophenyl) carbonate] |  |  |  |  |  |  | abnormal behavior or weight loss during treatment period [1]: no abnormal behavior or weight loss
CCCC[P+](CCCC)(CCCC)CCCNC(=O)OC1CCC2(CC1)OOC1(CCC(C(C)(C)C)CC1)OO2.[Br-] (stereo not drawn) [Compound 56, tributyl(3-((((12-(tert-butyl)-7,8,15,16-tetraoxadispiro[5.2.59.26]hexadecan-3-yl)oxy)carbonyl)amino)propyl)phosphonium bromide] | 2.7 |  |  |  | 11.1 |  | IC50 (NIH3T3 cells; [6]): 11.1 ± 0.6 µM; IC50 (HCT116 cells; [7]): 2.7 ± 0.3 µM; selectivity index (IC50 of NIH3T3 divided by IC50 on HCT116) (HCT116 cells; Table 12b, value in bracket): (>4.1); IC50 (MDA-MB-231 cells; [8]): 0.97 ± 0.1 µM; selectivity index (IC50 of NIH3T3 divided by IC50 on MDA-MB-231) (MDA-MB-231 cells; Table 12b, value in bracket): (>11.4)

Further lines, with some results ahead:

IC50 (HCT116 cells; [3]) [µM] | IC50 (MDA-MB-231 cells; [4]) [µM] | IC50 (Hela cells; Homo sapiens, HeLa) [µM] | IC50 (T47D cells; [5]) [µM] | SMILES | IC50 (NIH3T3 cells; [2]) [µM] | IC50 (MDCK cells; Canis lupus familiaris, MDCK) [µM] | also measured
 | 31.7 | 24.8 | 10.4 | CC(C)(C)C1CCC2(CC1)OOC1(CCC(OC(=O)NCCCN(Cc3ccccc3)Cc3ccccc3)CC1)OO2 (stereo not drawn) [Compound 37d, 12-(tert-butyl)-7,8,15,16-tetraoxadispiro[5.2.59.26]hexadecan-3-yl(3-(dibenzylamino)propyl)carbamate] | 30.3 | > 100 | 
 | 11 | 11.5 | 3.1 | CC1=CC(=O)C(C(C)(C)CC(=O)N2CCN(C(=O)OC3CCC4(CC3)OOC3(CCC(C(C)(C)C)CC3)OO4)CC2)=C(C)C1=O (stereo not drawn) [Compound 37g, 12-(tert-butyl)-7,8,15,16-tetraoxadispiro[5.2.59.26]hexadecan-3-yl 4-(3-(2,4-dimethyl-3,6-dioxocyclohexa-1,4-dien-1-yl)-3-methylbutanoyl)piperazine-1-carboxylate] | 26.6 | 22.3 | IC50 (NIH3T3 cells; [6]): 26.6 ± 2.6 µM; IC50 (MDA-MB-231 cells; [8]): 11 ± 0.9 µM; selectivity index (IC50 of NIH3T3 divided by IC50 on MDA-MB-231) (MDA-MB-231 cells; Table 12b, value in bracket): (>2.4); IC50 (T47D cells; [9]): 3.1 ± 0.7 µM; selectivity index (IC50 of NIH3T3 divided by IC50 on T47D) (T47D cells; Table 12b, value in bracket): (>8.5)
 | 23.9 | 30.6 | 10.6 | CC(C)(C)C1CCC2(CC1)OOC1(CCC(OC(=O)NCCOCCOCCNC(=O)OC3CCC4(CC3)OOC3(CCC(C(C)(C)C)CC3)OO4)CC1)OO2 (stereo not drawn) [Compound 37j, bis(12-(tert-butyl)-7,8,15,16-tetraoxadispiro[5.2.59.26]hexadecan-3-yl) ((ethane-1,2-diylbis(oxy))bis(ethane-2,1-diyl))dicarbamate] | > 100 | > 100 | 
 | 1.7 | 1.7 | 1.2 | CN(CCCNC(=O)OC1CCC2(CC1)OOC1(CCC(C(C)(C)C)CC1)OO2)Cc1ccccc1 (stereo not drawn) [Compound 37e, 12-(tert-butyl)-7,8,15,16-tetraoxadispiro[5.2.59.26]hexadecan-3-yl(3-(benzyl(methyl)amino)propyl)carbamate] | 1.9 | 19.3 | 
 | < 4 | 3.1 | 1.3 | CC(C)(C)C1CCC2(CC1)OOC1(CCC(OC(=O)N3CCNCC3)CC1)OO2 (stereo not drawn) [Compound 37f, 12-(tert-butyl)-7,8,15,16-tetraoxadispiro[5.2.59.26]hexadecan-3-yl piperazine-1-carboxylate] | 11.6 | 12.4 | IC50 (NIH3T3 cells; [6]): 11.6 ± 2.4 µM; IC50 (MDA-MB-231 cells; [8]): 2.9 ± 0.8 µM; selectivity index (IC50 of NIH3T3 divided by IC50 on MDA-MB-231) (MDA-MB-231 cells; Table 12b, value in bracket): (>4); IC50 (T47D cells; [9]): 1.3 ± 0.6 µM; selectivity index (IC50 of NIH3T3 divided by IC50 on T47D) (T47D cells; Table 12b, value in bracket): (>8.9)
